According to US5192760A, “3-carbalkoxyamino-5-(alpha-aminopropionyl)-5H-dibenz[b,f]azepines and method for their making” (priority 1989, dated 1993):
Read-outs that look alike come from different tables or passages of the source.

Assays:
in vivo [1] = experiment: in vivo; design: species or system male or female Wistar rats; details: Wistar rat, iv. in tail vein, p=0.05 confidence interval in parentheses
Description: LD50 iv. is the lethal dose in mg/kg body weight for 50% of the experimental animals of an orientating acute toxicity test on male or female Wistar rats of our own breed, iv. administration in the tail vein, 3-4 dosages, 10 animals per group. Data analyzed by the Probit regression analysis with a confidence interval of p=0.05 (values in parentheses).

in vivo [2] = assay type: in vivo, female Wistar rats; details: in vivo
Description: (§1) ED73 iv. and po. are the dose in mg/kg, body weight which inhibits aconitine in female Wistar rats after iv. or po. administration of the test substance up to the occurrence of isolated ventricular extrasystolae. The procedure is also described by K. Femmer et al., in Pharmazie, vol. 31, page 36 (1976). The test substances are administered 2 minutes before the aconitine if given iv., and 60 minutes before the aconitine if given orally. The data is analyzed by the Probit regression analysis with a confidence interval of p=0.05 (values in parentheses).
(§2) Q1 is the ratio of […]. to determine the absorption, and Q2 is the ratio of LD50 iv. /ED73 iv. to determine the therapeutic breadth.

Aconitine (rat) = experiment: animal or person; assay type: in vivo, female Wistar rats; details: Rattus norvegicus
Description: as §1, §2

[3] = ratio of ED73 po. to ED73 iv., rat aconitine, read-out: Q1 (ED73 po. /ED73 iv.), absorption ratio
[4] = ratio of LD50 iv. to ED73 iv., rat, read-out: Q2 (LD50 iv. /ED73 iv.), therapeutic breadth

## CCOC(=O)Nc1ccc2c(c1)N(C(=O)C(C)N(CC)CC)c1ccccc1CC2 (stereo not drawn) [Test No. 2]
In vivo [1]
  LD50: 12 mg/kg
In vivo [2]; [3]
  selectivity ratio: 9
In vivo [2]; [4]
  selectivity ratio: 9
Aconitine (rat); iv, read-out: ED73 iv.
  ED73: 1.3 mg/kg
Aconitine (rat); po, read-out: ED73 p.o.
  ED73: 11 mg/kg

## CCOC(=O)Nc1ccc2c(c1)N(C(=O)C(C)N1CCOCC1)c1ccccc1CC2 (stereo not drawn) [Test No. 3]
In vivo [1]
  LD50: > 70 mg/kg
In vivo [2]; [4]
  selectivity ratio: ~2
Aconitine (rat); iv, read-out: ED73 iv.
  ED73: 47 mg/kg
Aconitine (rat); po, read-out: ED73 p.o.
  ED73: > 80 mg/kg

## COC(=O)Nc1ccc2c(c1)N(C(=O)C(C)NCCO)c1ccccc1CC2 (stereo not drawn) [compound 9]
In vivo [1]
  LD50: 55 mg/kg
In vivo [2]; [4]
  selectivity ratio: 14
Aconitine (rat); iv, read-out: ED73 iv.
  ED73: 4 mg/kg

## CCOC(=O)Nc1ccc2c(c1)N(C(=O)C(C)NC)c1ccccc1C=C2 (stereo not drawn) [compound 10]
In vivo [1]
  LD50: 14 mg/kg
In vivo [2]; [3]
  selectivity ratio: 6.5
In vivo [2]; [4]
  selectivity ratio: 19
Aconitine (rat); iv, read-out: ED73 iv.
  ED73: 0.75 mg/kg
Aconitine (rat); po, read-out: ED73 p.o.
  ED73: 4.9 mg/kg

## CCOC(=O)Nc1ccc2c(c1)N(C(=O)C(C)N)c1ccccc1CC2 (stereo not drawn) [compound 13]
In vivo [1]
  LD50: 21 mg/kg
In vivo [2]; [3]
  selectivity ratio: 45
In vivo [2]; [4]
  selectivity ratio: 68
Aconitine (rat); iv, read-out: ED73 iv.
  ED73: 0.31 mg/kg
Aconitine (rat); po, read-out: ED73 p.o.
  ED73: 14 mg/kg

## CCOC(=O)Nc1ccc2c(c1)N(C(=O)CN(C)C)c1ccccc1CC2 [Bonnecor, 3carbethoxyamino-5-dimethylaminoacetyl-10,11-dihydro-5H-dibenz[b,f,]azepine, reference compound]
In vivo [2]; [3]
  selectivity ratio: 20
In vivo [2]; [4]
  selectivity ratio: 39
Aconitine (rat); iv, read-out: ED73 iv.
  ED73: 0.28 mg/kg
Aconitine (rat); po, read-out: ED73 p.o.
  ED73: 5.7 mg/kg

## CNC(C)C(=O)N1c2ccccc2CCc2ccc(NC(=O)OC(C)C)cc21 (stereo not drawn) [compound 6]
In vivo [1]
  LD50: 21 mg/kg
In vivo [2]; [3]
  selectivity ratio: 22
In vivo [2]; [4]
  selectivity ratio: 38
Aconitine (rat); iv, read-out: ED73 iv.
  ED73: 0.55 mg/kg
Aconitine (rat); po, read-out: ED73 p.o.
  ED73: 12 mg/kg

## CCCNC(C)C(=O)N1c2ccccc2CCc2ccc(NC(=O)OCC)cc21 (stereo not drawn) [compound 12]
In vivo [1]
  LD50: 2.5 mg/kg
In vivo [2]; [3]
  selectivity ratio: 22
In vivo [2]; [4]
  selectivity ratio: 16
Aconitine (rat); iv, read-out: ED73 iv.
  ED73: 0.16 mg/kg
Aconitine (rat); po, read-out: ED73 p.o.
  ED73: 3.5 mg/kg

## CCNC(C)C(=O)N1c2ccccc2CCc2ccc(NC(=O)OC(C)C)cc21 (stereo not drawn) [compound 7]
In vivo [1]
  LD50: 10 mg/kg
In vivo [2]; [3]
  selectivity ratio: 61
In vivo [2]; [4]
  selectivity ratio: 30
Aconitine (rat); iv, read-out: ED73 iv.
  ED73: 0.33 mg/kg
Aconitine (rat); po, read-out: ED73 p.o.
  ED73: 20 mg/kg

## CCOC(=O)Nc1ccc2c(c1)N(C(=O)C(C)NC)c1ccccc1CC2 (stereo not drawn) [Test No. 4, 3-Carbethoxyamino-5-(α-methylaminopropionyl)-10,11-dihydro-5H-dibenz[b,f]-azepine]
In vivo [1]
  LD50: 12 mg/kg
In vivo [2]; [3]
  selectivity ratio: 158
In vivo [2]; [4]
  selectivity ratio: 100
Aconitine (rat); iv, read-out: ED73 iv.
  ED73: 0.12 mg/kg
Aconitine (rat); po, read-out: ED73 p.o.
  ED73: 19 mg/kg

## CNC(C)C(=O)N1c2ccccc2CCc2ccc(NC(=O)OC)cc21 (stereo not drawn) [compound 8]
In vivo [1]
  LD50: 24 mg/kg
In vivo [2]; [3]
  selectivity ratio: 16
In vivo [2]; [4]
  selectivity ratio: 28
Aconitine (rat); iv, read-out: ED73 iv.
  ED73: 0.86 mg/kg
Aconitine (rat); po, read-out: ED73 p.o.
  ED73: 14 mg/kg

## CCNC(C)C(=O)N1c2ccccc2C=Cc2ccc(NC(=O)OCC)cc21 (stereo not drawn) [compound 11]
In vivo [1]
  LD50: 14 mg/kg
In vivo [2]; [3]
  selectivity ratio: 18
In vivo [2]; [4]
  selectivity ratio: 18
Aconitine (rat); iv, read-out: ED73 iv.
  ED73: 0.8 mg/kg
Aconitine (rat); po, read-out: ED73 p.o.
  ED73: 14 mg/kg

## Cc1cccc(C)c1OCC(C)N (stereo not drawn) [Mexiletin, reference compound]
Aconitine (rat); iv, read-out: ED50 iv. (printed in the ED73 p.o. column)
  ED50: 91 mg/kg
Aconitine (rat); iv, read-out: ED73 iv.
  ED73: 15 mg/kg

## CCOC(=O)Nc1ccc2c(c1)N(C(=O)CCN1CCOCC1)c1ccccc1S2 [Moracizin, reference compound]
In vivo [2]; [3]
  selectivity ratio: 102
In vivo [2]; [4]
  selectivity ratio: 10
Aconitine (rat); iv, read-out: ED73 iv.
  ED73: 1.1 mg/kg
Aconitine (rat); po, read-out: ED73 p.o.
  ED73: 112 mg/kg

## CCOC(=O)Nc1ccc2c(c1)N(C(=O)C(C)N(C)C)c1ccccc1CC2 (stereo not drawn) [Test No. 1]
In vivo [1]
  LD50: 20 mg/kg
In vivo [2]; [3]
  selectivity ratio: 10
In vivo [2]; [4]
  selectivity ratio: 8
Aconitine (rat); iv, read-out: ED73 iv.
  ED73: 2.4 mg/kg
Aconitine (rat); po, read-out: ED73 p.o.
  ED73: 24 mg/kg

## CCNC(C)C(=O)N1c2ccccc2CCc2ccc(NC(=O)OCC)cc21.Cl (stereo not drawn) [Test No. 5, 3-carbethoxyamino-5-(α-ethylaminopropionyl)-10,11-dihydro-5H-dibenz[b,f]azepine hydrochloride]
In vivo [1]
  LD50: 9.3 mg/kg
In vivo [2]; [3]
  selectivity ratio: 44
In vivo [2]; [4]
  selectivity ratio: 39
Aconitine (rat); iv, read-out: ED73 iv.
  ED73: 0.16 mg/kg
Aconitine (rat); po, read-out: ED73 p.o.
  ED73: 7 mg/kg
